This note sets out measurements from ChEMBL document CHEMBL1833875, “Synthesis and in vitro antiprotozoal activities of 5-phenyliminobenzo[a]phenoxazine derivatives” (Bioorg Med Chem Lett, 2011).

In general, pIC50 refers to the IC50 on a negative log10 scale, so that one unit is a factor of ten. A high value points to a small IC50.

pIC50: −log10 of the molar value.

A short description of data set [1]: Selectivity index, ratio of IC50 for rat L6 cells to IC50 for Plasmodium falciparum K1. It counts as toxicity, cell-based. As to conditions: read-out: Ratio IC50.
Data set [2] relates to Trypanosoma brucei rhodesiense. Description: Antiprotozoal activity against Trypanosoma brucei rhodesiense STIB900 at pH 7.4 by microplate assay. It counts as functional, organism-based.
Data set [3] in a line: Selectivity index, ratio of IC50 for rat L6 cells to IC50 for Trypanosoma cruzi Tulahuen C4. As to conditions: read-out: Ratio IC50. It counts as toxicity, cell-based.
A short description of data set [4]: Selectivity index, ratio of IC50 for rat L6 cells to IC50 for Leishmania donovani MHOM/ET/67/L82. In kind it is toxicity, cell-based. Particulars: read-out: Ratio IC50.
The test system of another data set is Leishmania donovani. The data set is described as follows: Antiprotozoal activity against Leishmania donovani MHOM/ET/67/L82 at pH 7.4 by microplate assay. In kind it is functional, organism-based.
Another data set concerns Plasmodium falciparum. Description: Antimalarial activity against Plasmodium falciparum K1 at pH 7.4 by microplate assay. It counts as functional, organism-based.
Another data set relates to Trypanosoma cruzi. Description: Antiprotozoal activity against Trypanosoma cruzi Tulahuen C4 at pH 7.4 by microplate assay. In kind it is functional, organism-based.
A short description of data set [5]: Selectivity index, ratio of IC50 for rat L6 cells to IC50 for Trypanosoma brucei rhodesiense STIB900. In kind it is toxicity, cell-based. Particulars: read-out: Ratio IC50.
A further data set deals with L6. The data set is described as follows: Cytotoxicity against rat L6 cells. It counts as cell-based.

Regarding `CCN(CC)c1ccc2nc3c4ccccc4/c(=N\c4ccccc4)cc-3oc2c1`, the selectivity ratio in data set [1] is 863; in data set [3], less than 0.79; in data set [4] it was 8.94; in [5] it was 2.03. The pIC50 in data set [2] was 4.05; in the data set with Leishmania donovani it was 4.70; with Plasmodium falciparum, 6.68; with Trypanosoma cruzi it was less than 3.64; in the data set on L6, 3.75.

Regarding `CCN(CC)c1ccc2nc3c4ccccc4/c(=N\c4ccc(C)cc4)cc-3oc2c1`, the selectivity ratio in data set [1] came to 531; in [3], 6.42; in [4] it was 12.5; in data set [5] it was 3.71. In addition, the pIC50 in [2] is 4.44; with Leishmania donovani it was 4.97; in the data set on Plasmodium falciparum, 6.60; with Trypanosoma cruzi, 4.68; with L6, 3.87.

Regarding `CCN(CC)c1ccc2nc3c4ccccc4/c(=N\c4ccc(OC)cc4)cc-3oc2c1`, the selectivity ratio in data set [1] stood at 1420; in data set [3], 2.82; in [4] it was 10.9; in data set [5] it was 3.84. The pIC50 in data set [2] is 4.83; with Leishmania donovani it was 5.28; with Plasmodium falciparum, 7.40; in the data set with Trypanosoma cruzi, 4.69; in the data set with L6, 4.24.

In the case of `CCN(CC)c1ccc2nc3c4ccccc4/c(=N\c4cccc(OC)c4)cc-3oc2c1`, the selectivity ratio in data set [1] was determined as 883; in [3] it was 0.28; in data set [4], 13.9; in data set [5], 3.52. Further, the pIC50 in data set [2] was 4.95; in the data set on Leishmania donovani, 5.54; with Plasmodium falciparum it was 7.35; with Trypanosoma cruzi, 3.84; in the data set with L6 it was 4.40.

On to `CCN(CC)c1ccc2nc3c4ccccc4/c(=N\c4ccccc4Cl)cc-3oc2c1`, for which the selectivity ratio was 261 in [1], 0.71 in data set [3], 2.41 in data set [4] and 0.66 in [5]. Moreover, the pIC50 is 4.07 in [2]; 4.63 with Leishmania donovani; 6.67 in the data set on Plasmodium falciparum; 4.10 in the data set on Trypanosoma cruzi; 4.25 in the data set on L6.

As for `CCN(CC)c1ccc2nc3c4ccccc4/c(=N\c4cccc(Cl)c4)cc-3oc2c1`, the selectivity ratio is 617 in [1], 1.68 in data set [3], 4.5 in data set [4] and 1 in [5]. The pIC50 is 3.89 in data set [2]; 4.54 in the data set on Leishmania donovani; 6.68 with Plasmodium falciparum; 4.12 in the data set with Trypanosoma cruzi; 3.89 in the data set on L6.

With `CCN(CC)c1ccc2nc3c4ccccc4/c(=N\c4ccc([N+](=O)[O-])cc4)cc-3oc2c1`, the selectivity ratio in data set [1] is 386; in data set [3], 0.91; in data set [4], less than 0.25; in data set [5], 0.26. Moreover, the pIC50 in [2] is 3.70; in the data set on Leishmania donovani, less than 3.69; in the data set on Plasmodium falciparum it was 6.87; with Trypanosoma cruzi it was 4.24; with L6, 4.28.

On to `CCN(CC)c1ccc2nc3c4ccccc4/c(=N\c4ccc([N+](=O)[O-])cc4Cl)cc-3oc2c1`, for which the selectivity ratio in data set [1] came to 8; in [3] it was 1.34; in data set [4] it was 0.21; in data set [5], 0.08. The pIC50 in data set [2] is 3.73; in the data set with Leishmania donovani, 4.15; in the data set with Plasmodium falciparum, 5.71; with Trypanosoma cruzi, 4.96; with L6, 4.84.

For `CCN(CC)c1ccc2nc3c4ccccc4/c(=N\c4ccc([N+](=O)[O-])cc4C#N)cc-3oc2c1`, the selectivity ratio in data set [1] was 302; in [3] it was 0.43; in data set [4] it was 0.68; in [5], 0.42. Further, the pIC50 in data set [2] is 3.83; in the data set with Leishmania donovani, 4.04; in the data set on Plasmodium falciparum it was 6.69; with Trypanosoma cruzi, 3.84; in the data set on L6, 4.21.

Consider `O=C(Cn1ccnc1[N+](=O)[O-])NCc1ccccc1` [BENZNIDAZOLE], for which, in the data set on Trypanosoma cruzi, the pIC50 was 6.05.
